Experimental data from PMC3994986 (Pigment cell & melanoma research, 2012).
Ends that are not written are not given here.

How the values were obtained:
MAPK signalling = conditions: ref Busca et al., 2000; cited from earlier work
mouse Mc1r = conditions: ref Candille et al., 2007, cited from earlier work
dog Mc1r = conditions: ref Candille et al., 2007; cited from earlier work
[1] = test system: mouse melan-a melanocytes; conditions: concentrations up to 1uM, ref Candille et al., 2007; cited from earlier work
human MC1R [2] = target: T1, human MC1R (Homo sapiens, UniProt Q01726); experiment: cAMP accumulation in HEK293 cells stably expressing human MC1R wild type; assay type: cell-based; conditions: for agonist character for MC1R-mediated cAMP signalling: HEK cells expressing human MC1R, relative to NDP-MSH
T1 sequence (Q01726 whole entry): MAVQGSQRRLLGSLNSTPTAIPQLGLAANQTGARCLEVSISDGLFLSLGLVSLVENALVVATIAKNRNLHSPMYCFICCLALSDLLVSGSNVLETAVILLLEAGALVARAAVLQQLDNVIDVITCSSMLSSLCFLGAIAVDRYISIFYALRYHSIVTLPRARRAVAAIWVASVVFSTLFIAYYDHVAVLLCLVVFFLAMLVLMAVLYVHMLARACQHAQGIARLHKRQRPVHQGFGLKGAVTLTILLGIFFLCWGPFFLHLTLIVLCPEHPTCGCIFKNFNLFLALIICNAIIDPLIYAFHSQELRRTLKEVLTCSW

human MC1R [3] = target: T1, human MC1R; assay type: cell-based
MC1R [4] = experiment: Inhibition of α-MSH-induced cAMP; assay type: cell-based; conditions: Figure S1H
HEK293 control cells = experiment: pERK response in control HEK293 cells; assay type: cell-based, human; conditions: Figure S2B and E; ligand not given
[5] = test system: MC1R variants D84E, V92M, R142H, R151C, R160W, D294H; assay type: cell-based, human
MC1R [6] = conditions: ref Candille et al., 2007; cited from earlier work
[7] = test system: pERK (HEK293 cells expressing MC1R); assay type: cell-based, human; conditions: PKA inhibitor H89; 300 nM HBD3 (Figure 2C and D); NDP-MSH (Figure S2D)
NR4A receptor family = conditions: ref Smith et al., 2008; cited from earlier work
MC1R variant receptors = conditions: ref Beaumont et al., 2005, 2007; cited from earlier work
[8] = test system: MC1R variants in HBL human melanoma cells; conditions: ref Herraiz et al., 2009, 2011; cited from earlier work

Q: For “alpha-melanocyte stimulating hormone (SYSMEHFRWGKPV; ends and bridges not checked; UniProt P01189 138-150, looked up) [α-MSH]”, which “induction of MAPK signalling” value (MAPK signalling) is on record?
A: Its value is “induce MAPK signalling”.

Q: Which results are given for β-defensin 103 [CBD103]?
A: Ki (mouse Mc1r; mouse Mc1r): 15.1 nM; binding to mouse Mc1r (mouse Mc1r): able to bind to dog and mouse Mc1r; binding to dog Mc1r (dog Mc1r): able to bind to dog and mouse Mc1r; cAMP induction in mouse melanocytes [1]: did not induce cAMP

Q: With “human β-defensin 3 (GIINTLQKYYCRVRGGRCAVLSCLPKEEQIGKCSTRGRKCCRRKK; ends and bridges not checked; cysteine pairing not given here; UniProt P81534 23-67, looked up) [HBD3]” as the substance, how does the “cAMP induction compared to 100 nM ASIP-YY” value (human MC1R [2]; 300 nM HBD3, Figure S1E and F) read?
A: Its value is “significant increase compared to 100 nM ASIP-YY”.

Q: And the “agonist character for MC1R-mediated cAMP signalling” value (human MC1R [2])?
A: The value was “partial agonist, with both agonistic and antagonistic effects on cAMP signalling”.

Q: And the “agonist character for MC1R-mediated cAMP signalling” value (human MC1R [2]; listed as β-defensin 3)?
A: Its value is “weak partial agonist for cAMP signalling”.

Q: What about the “competitive inhibition of NDP-MSH relative to ASIP-YY (cAMP)” value (human MC1R [3]) of the same substance?
A: Its value is “weaker competitive inhibitor to NDP-MSH”.

Q: What about the “inhibition of 1 nM NDP-MSH-induced cAMP” value (human MC1R [3]; 100 or 300 nM HBD3, two MC1R-expressing HEK clones (WTe, WT#21), 5–10 min, n = 3) of the same substance?
A: Its value is “able to inhibit the level of 1 nM NDP-MSH-induced cAMP”.

Q: And the “effect of increased concentration on level of inhibition” value (human MC1R [3]; 100 vs 300 nM HBD3, 1 nM NDP-MSH)?
A: Its value is “did not significantly increase the level of inhibition”.

Q: What about the “competitive antagonism of α-MSH induction of cAMP” value (MC1R [4]) of the same substance?
A: The value was “able to act as a competitive antagonist for α-MSH induction of cAMP”.

Q: And the “pERK induction in control cells” value (HEK293 control cells)?
A: The value was “no induction observed in control cells”.

Q: What about the “activation of ERK by variants” value ([5]; 300 nM HBD3, 5 min, exception of R151C and D84E, 2–3 independent experiments, Figure 3A, S3B) of the same substance?
A: The value was “With the exception of R151C and D84E, HBD3 stimulation produced a similar activation of ERK by variants”.

Q: What about the “binding to MC1R” value (MC1R [6]) of the same substance?
A: Its value is “found to bind with high affinity to the melanocortin-1 receptor”.

Q: What about the “displacement of NDP-MSH in ligand-binding assays” value (MC1R [6]) of the same substance?
A: The value was “displace NDP-MSH in ligand-binding assays”.

Q: Which “PKA dependence of MAPK activation” value [7] does the source give for “NDP- melanocyte stimulating hormone [NDP-MSH]” here?
A: The value was “This was also the case for NDP-MSH activation of MAPK”.

Q: What about the “induction of pERK over basal levels by variant receptors” value ([5]; 10 nM NDP-MSH, 5 min, 2–3 independent experiments, Figure 3A, S3A) of the same substance?
A: Its value is “all variant receptors show an induction of pERK over the basal levels”.

Q: And the “average pERK increase over basal levels, combined variant receptor cells” value ([5]; 10 nM NDP-MSH, 5 min, mean, n ≥ 3, normalized to GAPDH)?
A: Its value is 2.7 fold.

Q: What about the “pERK of combined variant receptor clones compared to control cells” value ([5]; 10 nM NDP-MSH, 5 min, n ≥ 3, t-test) of the same substance?
A: Its value is “significant increase compared to the levels of pERK in control cells”.

Q: What about the “induction of the NR4A receptor family” value (NR4A receptor family) of the same substance?
A: The value was “PKC and p38 are involved in the NDP-MSH induction of the NR4A receptor family”.

Q: What about the “cAMP response of MC1R variant receptors” value (MC1R variant receptors) of the same substance?
A: The value was “impaired cAMP responses”.

Q: And the “MAPK activation by variant receptors versus wild-type MC1R” value [8]?
A: Its value is “able to activate MAPK as efficiently as wild-type MC1R”.
